According to US6342503B1, “1N-alkyl-n-arylpyrimidinamines and derivatives thereof” (DuPont Pharmaceuticals Company, priority 1993, dated 2002):
Read-outs that look alike come from different tables or passages of the source.

Target: T1, CRF receptor (Rattus norvegicus, UniProt P35353)
T1 construct: 100 μl of membrane suspension as prepared above to give a total reaction volume of 300 μl; from tissue; host or cells: rat cerebral cortex membrane homogenate
T1 sequence (P35353 24-415): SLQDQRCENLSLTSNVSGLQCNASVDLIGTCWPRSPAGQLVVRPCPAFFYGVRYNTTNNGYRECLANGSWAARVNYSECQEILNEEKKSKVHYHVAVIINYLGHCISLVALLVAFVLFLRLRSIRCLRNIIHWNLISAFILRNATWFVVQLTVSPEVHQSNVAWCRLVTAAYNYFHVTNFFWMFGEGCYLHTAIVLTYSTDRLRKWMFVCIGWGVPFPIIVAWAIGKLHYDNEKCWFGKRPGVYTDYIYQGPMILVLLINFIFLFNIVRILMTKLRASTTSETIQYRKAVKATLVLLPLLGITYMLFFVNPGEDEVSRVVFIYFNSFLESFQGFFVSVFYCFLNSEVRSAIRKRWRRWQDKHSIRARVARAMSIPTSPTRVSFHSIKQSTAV
Assay: In vitro CRF receptor binding assay (competition with [125I] ovine CRF, rat cortex membranes)
Details: read-out: Inhibition Ki
Method: In vitro Receptor Binding Assay
Tissue Preparation: Male Sprague Dawley rats (180-200 g) were sacrificed by decapitation and the cortex was dissected on ice, frozen whole in liquid nitrogen and stored at −70° C. until use. On the day of assay, frozen tissue was weighed and homogenized in 20 volumes of ice cold buffer containing 50 mM Tris, 10 mM MgCl2, 2 mM EGTA, pH 7.0 at 22° C. using a Polytron (Brinkmann Instruments, Westbury, N.Y.; setting 6) for 20 s. The homogenate was centrifuged at 48,000× g for 10 min at 4° C. The supernatant was discarded, and the pellet was re-homogenized in the same volume of buffer and centrifuged at 48,000× g for 10 min at 4° C. The resulting pellet was resuspended in the above buffer to a final concentration of 20-40 mg original wet weight/mL and used in the assays described below.
CRF Receptor Binding: Receptor binding assays were carried out essentially as described by E. B. De Souza, J. Neurosci. […]
All assays were carried out at equilibrium for 2 h at 22° C. as described by E. B. De Souza, J. Neurosci. […] The reaction was terminated by centrifugation of the tubes in a Beckman microfuge for 5 min at 12,000× g. Aliquots of the supernatant were collected to determine the “free” radioligand concentration. The remaining supernatant was aspirated and the pellets washed gently with ice-cold PBS plus 0.01% Triton X-100; centrifuged again and monitored for bound radioactivity as described above. […] This program has the distinct advantage of fitting the raw experimental data on an untransformed coordinate system where errors are most likely to be normally distributed and uncorrelated with the independent variable. […] The parameters for the affinity constants (KD) and receptor densities (Bmax) are also provided along with statistics on the general “fit” of the estimated parameters to the raw data.
Competition Curve Analysis
The resulting pellets were surface washed twice by centrifugation with 1 mL of ice-cold phosphate buffered saline and 0.01% Triton X-100; the supernatants discarded and the pellets monitored for radioactivity at approximately 80% efficiency. The level of non-specific binding was defined in the presence of […] unlabeled rat/humanCRF (r/hCRF). Data from competition curves were analyzed by the program LIGAND. […] Routinely, the data were analyzed using a one- and two-site model comparing the “goodness of fit” between the models in order to accurately determine the Ki. Statistical analyses provided by LIGAND allowed the determination of whether a single-site or multiple-site model should be used.
In Table 17; the Ki values were determined using the assay conditions described above.

[1] = competition with [125I] ovine CRF, 2 h at 22° C., Ki classes

| SMILES | Ki [nM] | Ki [1] [nM] |
| --- | --- | --- |
| Cc1cc(-c2ccccc2)c2c(C#N)cn(-c3ccc(C(C)C)cc3Br)c2n1 [Example 256] | < 500 | – |
| Cc1cc(C)c2ccn(-c3ccc(C(C)C)cc3Br)c2n1 [Example 257] | < 500 | – |
| Cc1cc(Cl)c2ccn(-c3ccc(C(C)C)cc3Br)c2n1 [Example 259] | < 500 | – |
| Cc1cc(-c2ccccc2)c2ccn(-c3ccc(C(C)C)cc3Br)c2n1 [Example 261] | < 500 | – |
| Cc1cc(Cl)nc2c1ccn2-c1ccc(C(C)C)cc1Br [Example 263] | < 500 | – |
| Cc1ccc(N(C)c2nc(C)cc(C)n2)c(Br)c1 [compound 1, N-(2-bromo-4-methylphenyl)-N-methyl-4,6-dimethyl-2-pymidinamine] | 501 to 2000 | – |
| COc1ccc(N(C)c2nc(C)cc(C)n2)c(OC)c1 [compound 2] | 501 to 2000 | – |
| C=CCN(c1nc(C)cc(C)n1)c1ccccc1Br [compound 3] | 501 to 2000 | – |
| Cc1cc(C)nc(N(C)c2ccc(C(C)C)cc2Br)n1 [compound 4, N-(2-bromo-4-(1-methylethyl)phenyl)-N-methyl-4,6-dimethyl-2-pymidinamine] | < 500 | – |
| CCc1ccc(N(C)c2nc(C)cc(C)n2)c(Br)c1 [compound 9, N-(2-bromo-4-ethylphenyl)-N-methyl-4,6-dimethyl-2-pypimidinamine] | < 500 | – |
| Cc1cc(C)nc(N(C)c2ccc(C(C)(C)C)cc2Br)n1 [compound 11] | < 500 | – |
| CCN(c1nc(C)cc(N2CCOCC2)n1)c1ccc(C(C)C)cc1Br [compound 16, N-(2-bromo-4-(1-methylethyl)phenyl)-N-ethyl-4-morpholino-6-methyl-2-pymidinamine] | – | < 500 |
| C=CCN(c1nc(C)cc(N2CCOCC2)n1)c1ccc(C(C)C)cc1Br [compound 17] | < 500 | – |
| CCCCc1ccc(N(CC)c2nc(C)cc(C)n2)c(Br)c1 [compound 19] | < 500 | – |
| CCN(c1nc(C)cc(C)n1)c1ccc(C(C)C)cc1Br [compound 21, N-(2-bromo-4-(1-methylethyl)phenyl)-N-ethyl-4,6dimethyl-2-pyrimidinamine] | < 500 | – |
| CCN(c1nc(C)cc(C)n1)c1ccc(C2CCCCC2)cc1Br [compound 22] | 501 to 2000 | – |
| CCCCc1ccc(N(CC)c2nc(CC)cc(CC)n2)c(Br)c1 [compound 24] | 501 to 2000 | – |
| CCN(c1nc(C)cc(-c2cccs2)n1)c1ccc(C(C)C)cc1Br [compound 31, N-(2-Bromo-4-(1-methylethyl)phenyl)-N-ethyl-6-methyl-4-(2-thienyl)-2-pyrimidinamine] | < 500 | – |
| Cc1cc(C)nc(N(CC#N)c2ccc(C(C)C)cc2Br)n1 [compound 32] | < 500 | – |
| Cc1cc(C)nc(N(CC2CC2)c2ccc(C(C)C)cc2Br)n1 [compound 33] | < 500 | – |
| C#CCN(c1nc(C)cc(C)n1)c1ccc(C(C)C)cc1Br [compound 34, N-(2-Bromo-4-(1-methylethyl)phenyl)-N-propargyl4,6-dimethyl-2-pyrimidinamine] | < 500 | – |
| C=CCOC1CCN(c2cc(C)nc(N(CC)c3ccc(C(C)C)cc3Br)n2)CC1 [compound 37] | < 500 | – |
| CCN(c1nccc(C)n1)c1ccc(C(C)C)cc1Br [compound 49, N-(2-Bromo-4-(1-methylethyl)phenyl)-N-ethyl-4-methyl-2-pymidinamine] | 2000 to 10000 | – |
| CCN(c1nc(C)cc(N(C)CCO)n1)c1ccc(C(C)C)cc1Br [compound 50, N-(2-Bromo-4-(1-methylethyl)phenyl)-N-ethyl-4-methyl-6-(N-methyl-2-hydroxyethlamino)-2-pyrimidinamine] | < 500 | – |
| CCN(c1nc(C)cc(C)n1)c1c(OC)cc(C)cc1OC [compound 51] | 501 to 2000 | – |
| Cc1cc(C)nc(N(C)c2ccc(I)cc2)n1 [compound 52] | 2000 to 10000 | – |

| SMILES | Ki [nM] | Ki [1] [nM] |
| --- | --- | --- |
| Cc1cc(C)nc(N(C)c2ccccc2I)n1 [compound 53] | 2000 to 10000 | – |
| Cc1cc(C)nc(N(C)c2ccccc2C(F)(F)F)n1 [compound 54] | 2000 to 10000 | – |
| CCN(c1nc(C)cc(C)n1)c1ccc(OC(C)C)cc1Br [compound 57, N-(2-Bromo-4-(isopropoxy)phenyl)-N-ethyl-4,6dimethyl-2-pymidinamine] | < 500 | – |
| CCN(c1nc(C)cc(C(=O)N2CCOCC2)n1)c1ccc(C(C)C)cc1Br [compound 58, N-(2-bromo-4-(1-methylethyl)phenyl)-N-ethyl-4-methyl-6-(4-morpholinylcarbonyl)-2-pyrimidinamine] | < 500 | – |
| CCN(c1nc(C)cc(CN2CCOCC2)n1)c1ccc(C(C)C)cc1Br [compound 59, N-(2-bromo-4-(1-methylethyl)phenyl)-N-ethyl-6-methyl-4-(4-morpholinylmethyl)-2-pyrmidinamine] | – | < 500 |
| CCN(c1nc(C)cc(C(=O)OC)n1)c1ccc(C(C)C)cc1Br [compound 61, Methyl 2-((2-bromo-4-(1-methylethyl)phenyl)ethylamino)-6-methyl-4-pyrimidinecarboxylate] | – | < 500 |
| CCN(c1nc(C)cc(C(=O)N2CCN(C)CC2)n1)c1ccc(C(C)C)cc1Br [compound 63, N-(2-bromo-4-(1-methylethyl)phenyl)-N-ethyl-4-methyl-6-(4-methylpiperazinylcarbonyl)-2-pyrimidinamine] | – | 2000 to 10000 |
| CCN(c1nc(C)cc(C)n1)c1ccc(C(C)C)cc1OC [compound 65, N-ethyl-N-(2-methoxy4-(1-methylethyl)phenyl)4,6-dimethyl-2-pyimidinamine] | – | 2000 to 10000 |
| Cc1cc(C)nc(N(C)c2ccc(C(C)C)cc2)n1 [compound 66] | 2000 to 10000 | – |
| CCN(c1nc(C)cc(N2CCSCC2)n1)c1ccc(C(C)C)cc1I [compound 73, N-ethyl-N-(2-iodo4-(1-methylethyl)phenyl)4-thiomorpholino-6-methyl-2-pyrimidinamine] | < 500 | – |
| CCN(c1cc(OC)nc(OC)n1)c1ccc(C(C)C)cc1Br [compound 130] | 501 to 2000 | – |
| CCN(c1nc(C)nc(C)n1)c1ccc(C(C)C)cc1Br [compound 133] | 501 to 2000 | – |
| CCN(c1nc(C)nc(N2CCOCC2)n1)c1ccc(C(C)C)cc1Br [compound 134, N-[2-bromo-4-(1-methylethyl)phenyl]-N-ethyl-4-methyl-6-(4-morpholinyl)-1,3,5-triazin-2-amine] | < 500 | – |
| CCN(c1nc(C)nc(N2CCSCC2)n1)c1ccc(C(C)C)cc1I [compound 135] | < 500 | – |
| CCN(c1nc(C)nc(N2CCOCC2)n1)c1ccc(C(C)C)cc1I [compound 136] | < 500 | – |
| CCN(c1nc(C)nc(N2CCCCC2)n1)c1ccc(C(C)C)cc1I [compound 137] | < 500 | – |
| CCN(c1nc(C)cc(SC)n1)c1ccc(C(C)C)cc1Br [compound 140, N-(2-bromo-4-(1-methylethyl)phenyl)-N-ethyl-4-methyl-6-(thiomethyl)-2-pyrimidinamine] | < 500 | – |
| CCN(c1nc(C)cc(NN)n1)c1ccc(C(C)C)cc1Br [compound 146] | 2000 to 10000 | – |
| CCN(c1nc(C)cc(OCc2ccccc2)n1)c1ccc(C(C)C)cc1Br [compound 149] | < 500 | – |
| CCN(c1nc(C)cc(OCCCSC)n1)c1ccc(C(C)C)cc1Br [compound 150] | < 500 | – |
| CCN(c1nc(C)cc(Cl)n1)c1ccc(C(C)C)cc1Br [compound 154] | < 500 | – |
| CCN(c1nc(C)cc(N)n1)c1ccc(C(C)C)cc1Br [compound 155] | < 500 | – |
| CCN(c1nc(C)cc(OCCCS(C)(=O)=O)n1)c1ccc(C(C)C)cc1Br [compound 156] | < 500 | – |
| CCN(c1nc(C)cc(S(C)(=O)=O)n1)c1ccc(C(C)C)cc1Br [compound 159, N-(2-bromo-4-(1-methylethyl)phenyl)-N-ethyl-4-methyl-6-(thiomethyl)-2-pyrimidinamine, dioxide] | < 500 | – |
| CCN(c1nc(C)cc([S+](C)[O-])n1)c1ccc(C(C)C)cc1Br (stereo not drawn) [compound 160, N-(2-bromo-4-(1-methylethyl)phenyl)-N-ethyl-4-methyl-6-(thiomethyl)-2-pyrimidinamine, S-oxide] | < 500 | – |
